# Laboratory results from patent US5985603A, “P2x receptor DNA and protein sequence” (Glaxo Group Limited, priority 1994, dated 1999).
# How the values were obtained:
# P2X mRNA = conditions: rat, RP2 mRNA; cited from earlier work
# P2-purinoceptor = conditions: reported previously for suramin; cited from earlier work
# mouse vas deferens = conditions: cited from earlier work
# [1] = target: T1, rat superior cervical ganglion P2X receptor (clone 3) (Rattus norvegicus, UniProt P51577); assay: functional properties of cloned P2X receptors (electrical recordings): clone 3; format: cell-based
# T1 construct: The insert appeared to be a full length cDNA; expressed in transfected cells; host or cells: HEK293 cells transfected with pcDNA3 construct p464 (also oocytes injected with in vitro transcribed RNA)
# T1 sequence (P51577 1-388): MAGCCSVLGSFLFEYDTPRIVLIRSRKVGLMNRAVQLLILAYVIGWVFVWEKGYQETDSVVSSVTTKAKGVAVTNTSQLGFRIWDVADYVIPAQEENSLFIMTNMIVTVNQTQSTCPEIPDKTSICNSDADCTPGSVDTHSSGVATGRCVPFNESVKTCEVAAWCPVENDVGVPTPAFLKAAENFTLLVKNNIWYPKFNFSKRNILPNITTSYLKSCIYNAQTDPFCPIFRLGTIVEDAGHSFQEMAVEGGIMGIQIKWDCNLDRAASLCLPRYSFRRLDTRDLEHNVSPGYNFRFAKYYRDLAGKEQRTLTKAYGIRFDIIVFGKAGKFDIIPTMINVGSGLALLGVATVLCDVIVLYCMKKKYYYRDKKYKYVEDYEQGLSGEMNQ
# Experimental: (§1) HEK 293 cells were transfected by the lipofectin method (Felgner et al., Proc. Nat'l. Acad. Sci. USA 84 7413-7417 (1987)) with P2X -plasmid. DNA concentration used was 1 mg/2 ml medium placed into a 35 mm petri dish containing four 11 mm diameter coverslips on which HEK cells were placed at 10,000 cells per coverslip. […] Currents were recorded from HEK 293 cells using whole-cell recording methods and the AXOPATCH™ 200 amplifier (Axon Instruments); patch pipettes (5 M.OMEGA.) contained (mM) Cs or K aspartate 140, NaCl 5, EGTA 11, HEPES 5. The external solution was (mM) NaCl 150, KCl2, CaCl2 2, MgCl2 1, HEPES 5 and glucose 11; the pH and osmolarity of both solutions were maintained at 7.3 and 305 mosmol/l respectively. All recordings performed at room temperature. Data acquisition and analysis were performed using pCLAMP™ and AXOGRAPH™ software (Axon Instruments). […] The pH and osmolarity of the solutions were 7.4 and 295 mosmol/l respectively. For single channel measurements, a […]™ 500 amplifier and outside-out recording methods were used (Adelman et al., Neuron 9 209-216 (1992)). Wax-coated patch pipettes (5-10 M.OMEGA.) contained (mM) K-gluconate 115, HEPES 5, BAPTA 5 and MgCl2 0.5, external solution was 96 mM NaCl, 2 mM KCl, 1.8 mM CaCl2, 1 mM MgCl2, 5 mM Hepes pH 7.6, and 5 mM sodium pyruvate.
# (§2) The functional characterisation of the clone illustrated in FIG. 2 (referred to herein as clone 3) was carried out by electrical recordings from transfected HEK293 cells and from oocytes injected with the in vitro transcribed RNA, as described in Example 4 for the rat vas deferens P2X receptor. Table A summarizes the main properties of clone 3 as compared to those of rat vas/human bladder cDNA clone, and the PC12 cDNA clone (provided by David Julius and Tony Brake of the University of California at San Francisco).
# PC12 P2X receptor = target: T2, PC12 P2X receptor (Rattus norvegicus, UniProt P49653); assay: functional properties of cloned P2X receptors (electrical recordings): PC12; format: cell-based
# T2 construct: host or cells: HEK293 cells (oocytes are also named for the functional characterisation of clone 3)
# T2 sequence (P49653 1-472): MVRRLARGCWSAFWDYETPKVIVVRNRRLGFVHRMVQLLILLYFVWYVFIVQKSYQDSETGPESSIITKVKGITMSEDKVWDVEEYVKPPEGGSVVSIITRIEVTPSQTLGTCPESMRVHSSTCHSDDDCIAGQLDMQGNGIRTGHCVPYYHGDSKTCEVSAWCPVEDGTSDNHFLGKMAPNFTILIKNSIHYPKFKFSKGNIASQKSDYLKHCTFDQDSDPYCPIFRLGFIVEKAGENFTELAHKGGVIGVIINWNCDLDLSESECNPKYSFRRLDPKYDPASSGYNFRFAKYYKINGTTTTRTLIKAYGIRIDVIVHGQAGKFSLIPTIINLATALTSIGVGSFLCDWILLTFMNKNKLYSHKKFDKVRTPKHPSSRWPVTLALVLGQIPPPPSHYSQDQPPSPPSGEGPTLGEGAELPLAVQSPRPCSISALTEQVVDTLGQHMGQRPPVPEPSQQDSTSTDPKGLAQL
# Experimental: as §1, §2
# [2] = target: T3, rat vas deferens P2X receptor (Rattus norvegicus, UniProt P47824); assay: radioligand binding in CHO cells stably transfected with rat vas deferens P2X receptor
# T3 construct: cRNA in Xenopus oocytes; stably transfected CHO cells
# T3 sequence (P47824 1-399): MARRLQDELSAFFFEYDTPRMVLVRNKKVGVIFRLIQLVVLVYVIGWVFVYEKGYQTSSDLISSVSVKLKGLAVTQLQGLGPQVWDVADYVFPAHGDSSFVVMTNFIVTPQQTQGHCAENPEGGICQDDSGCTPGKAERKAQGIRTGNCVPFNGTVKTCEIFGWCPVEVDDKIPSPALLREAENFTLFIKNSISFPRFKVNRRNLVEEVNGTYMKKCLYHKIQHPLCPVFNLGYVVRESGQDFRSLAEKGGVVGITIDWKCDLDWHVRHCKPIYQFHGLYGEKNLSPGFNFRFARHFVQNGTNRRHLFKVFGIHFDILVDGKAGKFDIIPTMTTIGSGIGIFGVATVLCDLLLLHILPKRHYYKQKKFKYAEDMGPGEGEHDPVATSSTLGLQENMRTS
# Text: CHO cells were stably transfected by a method used for other ion channels (Claudio, Meth. Enzymol. 207 391-408 (1992)). Transfection was confirmed by a) electro-physiological recording and b) radioligand binding. […] [^3 H]αβmethyleneATP binding was more than 600 cpm per million transfected cells with less than 80 cpm nonspecific binding.
compound,measurement,setting,value
C[C@@H]1C[C@H]2[C@@H]3CCC4=CC(=O)C=C[C@]4(C)[C@@]3(F)[C@@H](O)C[C@]2(C)[C@@]1(O)C(=O)CO [dexamethasone],induction of P2X mRNA in immature thymocytes,P2X mRNA,can be induced in immature thymocytes by dexamethasone
Cc1ccc(C(=O)Nc2ccc(S(=O)(=O)O)c3cc(S(=O)(=O)O)cc(S(=O)(=O)O)c23)cc1NC(=O)c1cccc(NC(=O)Nc2cccc(C(=O)Nc3cc(C(=O)Nc4ccc(S(=O)(=O)O)c5cc(S(=O)(=O)O)cc(S(=O)(=O)O)c45)ccc3C)c2)c1 [suramin],pA2,P2-purinoceptor,5.9
same,pKB,mouse vas deferens,5.2
same,"antagonist profile, clone 3 (block)","[1]; Table A, concentration not given",< 40%
same,"sensitivity of ATP-activated currents to antagonism, compared with rat vas deferens/human bladder and PC12 forms",[1]; clone 3 (FIG. 15),much less sensitive to antagonism
same,IC50,PC12 P2X receptor,6 µM
[^3 H]αβmethyleneATP,binding,[2],more than 600 cpm per million transfected cells
same,nonspecific binding,[2],less than 80 cpm
